A short description of data set [1]: CC50 assay (CellTiter-Glo) in Huh-7 HCV replicon cells. The following applies: human, 3 days incubation, CellTiter-Glo readout. The format is cell-based, human. The essentials:
(§1)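 Cytotoxicity (CC50) measured by CellTiter-Glo and antiviral activity (EC50) by luciferase signal from lysed cells, both by luminescence. Replicon-bearing Huh-7 cells, 6000 per well, incubated 3 days at 37 °C with threefold-diluted compound (0.5% DMSO for DMSO-dissolved compounds).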
(In general: Cellular ATP, detected with luciferase, serves as a proxy for viable cell number.)

In data set [2] the test system is HCV replicon in human hepatoma Huh-7 cell line. Description: Anti-HCV replicon assay (EC50, luciferase). The format is cell-based. The following applies: Hepatitis C virus, Huh-7, 72 h. The procedure, abridged: as §1
(In general: A replicon is a self-replicating genome or part of one, used to study replication in cells.)

As a reminder, the CC50 is the concentration that lowers cell viability or growth by half. A low value points to greater toxicity to the cells. Broadly, the EC50 is the midpoint of the concentration-response curve. `CC(C)N1CCC(NS(=O)(=O)c2cc(-c3ccc4nc(NCc5ccc(S(N)(=O)=O)cc5)nc(NCC(F)(F)F)c4n3)ccc2Cl)CC1` [Example 193, 2-Chloro-N-(1-isopropyl-piperidin-4-yl)-5-[2-(4-sulfamoyl-benzylamino)-4-(2,2,2-trifluoro-ethylamino)-pyrido[3,2-d]pyrimidin-6-yl]-benzenesulfonamide] yielded a CC50 at 3 days in data set [1] of less than 5 µM. The compound further showed an EC50 in data set [2] of less than 0.1 µM.

In data set [1], `NS(=O)(=O)c1ccc(CNc2nc(NCC(F)(F)F)c3nc(-c4ccc(N5CCC(O)C5=O)cc4)ccc3n2)cc1` (stereo not drawn) [Example 179, 4-{[6-[4-(3-Hydroxy-2-oxo-pyrrolidin-1-yl)-phenyl]-4-(2,2,2-trifluoro-ethylamino)-pyrido[3,2-d]pyrimidin-2-ylamino]-methyl}-benzenesulfonamide] had a CC50 at 3 days of more than 25 µM. Further, in data set [2], the EC50 is less than 0.1 µM.

Compound `CCOc1nc(NCc2ccc(F)cc2)nc2ccc(-c3ccc(C(=O)NC4CC4)cc3)nc12` [Example 65, N-Cyclopropyl-4-[4-ethoxy-2-(4-fluoro-benzylamino)-pyrido[3,2-d]pyrimidin-6-yl]-benzamide] registered a CC50 at 3 days in data set [1] of more than 25 µM. This compound also returned an EC50 in data set [2] of less than 0.1 µM.

In turn, `CS(=O)(=O)N(CCO)c1cccc(-c2ccc3nc(NCc4ccc(S(N)(=O)=O)cc4)nc(NCC(F)F)c3n2)c1` [Example 157, 4-{[4-(2,2-Difluoroethyl)-amino-6-(4-(3-(N-2-hydroxyethyl)methane-sulfonamido)-phenyl)-pyrido[3,2-d]pyrimidin-2-ylamino]-methyl}-benzenesulfonamide] yielded a CC50 at 3 days in data set [1] of more than 25 µM. The EC50 in data set [2] was less than 0.1 µM.

In data set [1], `CCOc1nc(NCc2ccc(S(N)(=O)=O)cc2)nc2ccc(-c3ccc(NC(=O)N4CCOCC4)cc3)nc12` [Example 128, 4-{[4-Ethoxy-6-(4-(morpholine-4-carboxamido)-phenyl)-pyrido[3,2-d]pyrimidin-2-ylamino]-methyl}-benzenesulfonamide] displayed a CC50 at 3 days of 5 to 25 µM. The same compound showed an EC50 in data set [2] of less than 0.1 µM.

`NS(=O)(=O)c1ccc(CNc2nc(Nc3cccc(F)c3)c3nc(-c4ccc(F)cc4)ccc3n2)cc1` [Example 229, 4-{[6-(4-Fluoro-phenyl)-4-(3-fluoro-phenylamino)-pyrido[3,2-d]pyrimidin-2-ylamino]-methyl}-benzenesulfonamide] showed a CC50 at 3 days in data set [1] of less than 5 µM. The same compound yielded an EC50 in data set [2] of less than 0.1 µM.

As for `NS(=O)(=O)c1ccc(CNc2nc(NCC(F)(F)F)c3nc(-c4ccc(NC(=O)[C@H]5CCNC5)cc4)ccc3n2)cc1` [Example 222, Pyrrolidine-3-carboxylic acid {4-[2-(4-sulfamoyl-benzylamino)-4-(2,2,2-trifluoro-ethylamino)-pyrido[3,2-d]pyrimidin-6-yl]-phenyl}-amide], the CC50 at 3 days in data set [1] was 5 to 25 µM. The same compound registered a half-maximal effective concentration (EC50) in data set [2] of less than 0.1 µM.

`Fc1ccc(-c2ccc3nc(NCc4ccccn4)nc(NCC(F)(F)F)c3n2)cc1` [Example 243, 6-(4-Fluoro-phenyl)-N2-pyridin-2-ylmethyl-N4-(2,2,2-trifluoro-ethyl)-pyrido[3,2-d]pyrimidine-2,4-diamine] registered a CC50 at 3 days in data set [1] of 5 to 25 µM. The compound further came in with an EC50 in data set [2] of less than 0.1 µM.

Regarding `COCCOc1nc(NCc2ccc(S(N)(=O)=O)cc2)nc2ccc(-c3ccc(F)c(Cl)c3)nc12` [Example 236, 4-{[6-(3-Chloro-4-fluoro-phenyl)-4-(2-methoxy-ethoxy)-pyrido[3,2-d]pyrimidin-2-ylamino]-methyl}-benzenesulfonamide], the CC50 at 3 days in data set [1] lay within 5 to 25 µM. The EC50 in data set [2] is less than 0.1 µM.

Compound `CCOc1nc(NCc2ccc(F)cc2)nc2ccc(-c3ccc(NC(=O)C4(O)CC4)cc3)nc12` [Example 101, 1-Hydroxy-cyclopropanecarboxylic acid {4-[4-ethoxy-2-(4-fluoro-benzylamino)-pyrido[3,2-d]pyrimidin-6-yl]-phenyl}-amide] displayed a CC50 at 3 days in data set [1] of 5 to 25 µM. The compound further returned an EC50 in data set [2] of less than 0.1 µM.

For the compound `NS(=O)(=O)c1ccc(CNc2nc(NCC(F)(F)F)c3nc(-n4ccnc4)ccc3n2)cc1` [Example 286, 4-{[6-Imidazol-1-yl-4-(2,2,2-trifluoro-ethylamino)-pyrido[3,2-d]pyrimidin-2-ylamino]-methyl}-benzenesulfonamide], the CC50 at 3 days in data set [1] was 5 to 25 µM. This compound returned an EC50 in data set [2] of less than 0.1 µM.

With `CCOc1nc(NCc2ccc(F)cc2)nc2ccc(-c3cccc(NS(=O)(=O)CCN4CCCC4)c3)nc12` [Example 81, 2-Pyrrolidin-1-yl-ethanesulfonic acid {3-[4-ethoxy-2-(4-fluoro-benzylamino)-pyrido[3,2-d]pyrimidin-6-yl]-phenyl}-amide], the CC50 at 3 days in data set [1] is less than 5 µM. The compound further returned an EC50 in data set [2] of less than 0.1 µM.

Compound `CCOc1nc(NCc2ccc(S(N)(=O)=O)cc2)nc2ccc(-c3ccc(C(=O)NC4CC4)cc3)nc12` [Example 144, 4-{[4-Ethoxy-6-(4-(N-cyclopropylcarbamoyl)phenyl)-pyrido[3,2-d]pyrimidin-2-ylamino]-methyl}-benzenesulfonamide] displayed a CC50 at 3 days in data set [1] of 5 to 25 µM. The compound also registered an EC50 in data set [2] of less than 0.1 µM.

`Fc1ccc(-c2ccc3nc(NCc4ncco4)nc(NCC(F)(F)F)c3n2)cc1` [Example 253, 6-(4-Fluoro-phenyl)-N2-oxazol-2-ylmethyl-N4-(2,2,2-trifluoro-ethyl)-pyrido[3,2-d]pyrimidine-2,4-diamine]: in data set [1], the CC50 at 3 days was less than 5 µM. In data set [2], this compound registered an EC50 of less than 0.1 µM.

As to `NC(=O)c1ccc(-c2ccc3nc(NCc4ccc(S(N)(=O)=O)cc4)nc(NC4CC4)c3n2)cc1` [Example 186, 4-[4-Cyclopropylamino-2-(4-sulfamoyl-benzylamino)-pyrido[3,2-d]pyrimidin-6-yl]-benzamide], the CC50 at 3 days in data set [1] is more than 25 µM. In data set [2], this compound gave an EC50 of less than 0.1 µM.

In turn, `CS(=O)(=O)Nc1ccc(CNc2nc(NCC(F)(F)F)c3nc(-c4ccc(F)cc4)ccc3n2)cc1` [Example 241, N-(4-{[6-(4-Fluoro-phenyl)-4-(2,2,2-trifluoro-ethylamino)-pyrido[3,2-d]pyrimidin-2-ylamino]-methyl}-phenyl)-methanesulfonamide] gave a CC50 at 3 days in data set [1] of 5 to 25 µM. Moreover, the EC50 in data set [2] is less than 0.1 µM.

On to `CCOc1nc(NCc2ccc(F)cc2)nc2ccc(-c3ccc(F)nc3)nc12` [Example 87, [4-Ethoxy-6-(6-fluoro-pyridin-3-yl)-pyrido[3,2-d]pyrimidin-2-yl]-(4-fluoro-benzyl)-amine], for which the CC50 at 3 days in data set [1] is less than 5 µM. The EC50 in data set [2] was less than 0.1 µM.

In data set [1], `CCOc1nc(NCc2ccc(F)cc2)nc2ccc(-c3ccc(NC(N)=O)cc3)nc12` [Example 75, {4-[4-Ethoxy-2-(4-fluoro-benzylamino)-pyrido[3,2-d]pyrimidin-6-yl]-phenyl}-urea] had a CC50 at 3 days of more than 25 µM. The EC50 in data set [2] was less than 0.1 µM.

`Cc1noc(C)c1-c1ccc2nc(NCc3ccc(S(N)(=O)=O)cc3)nc(NCC(F)(F)F)c2n1` [Example 165, 4-{[6-(3,5-Dimethyl-isoxazol-4-yl)-4-(2,2,2-trifluoro-ethylamino)-pyrido[3,2-d]pyrimidin-2-ylamino]-methyl}-benzenesulfonamide] gave a CC50 at 3 days in data set [1] of less than 5 µM. In data set [2], this compound showed an EC50 of less than 0.1 µM.

In data set [1], `CC(C)Nc1nc(NCC(F)F)nc2ccc(-c3ccc(F)cc3)nc12` [Example 57, N2-(2,2-Difluoro-ethyl)-6-(4-fluoro-phenyl)-N4-isopropyl-pyrido[3,2-d]pyrimidine-2,4-diamine] registered a CC50 at 3 days of less than 5 µM. Also, the EC50 in data set [2] lay in the range of 0.25 to 2 µM.

As for `CS(=O)(=O)CCNc1nc(NCc2ccc(F)cc2)nc2ccc(-c3cnc(N)s3)nc12` [Example 282, 6-(2-Amino-thiazol-5-yl)-N2-(4-fluoro-benzyl)-N4-(2-methanesulfonyl-ethyl)-pyrido[3,2-d]pyrimidine-2,4-diamine], in data set [1], the CC50 at 3 days is more than 25 µM. Further, in data set [2], the EC50 is less than 0.1 µM.

In turn, `CCCc1nc(NCc2ccc(F)cc2)nc2ccc(-c3ccc(NC(=O)C(C)(C)N)cc3)nc12` [Example 295, 2-Amino-N-{4-[2-(4-fluoro-benzylamino)-4-propyl-pyrido[3,2-d]pyrimidin-6-yl]-phenyl}-2-methyl-propionamide] returned a CC50 at 3 days in data set [1] of more than 25 µM. The compound further showed an EC50 in data set [2] of less than 0.1 µM.

For the compound `CCOc1nc(NCc2ccc(F)cc2)nc2ccc(-c3ccc(NC(=O)NC4CC4)cc3)nc12` [Example 74, 1-Cyclopropyl-3-{4-[4-ethoxy-2-(4-fluoro-benzylamino)-pyrido[3,2-d]pyrimidin-6-yl]-phenyl}-urea], the CC50 at 3 days in data set [1] lay within 5 to 25 µM. In data set [2], this compound had an EC50 of less than 0.1 µM.

`CCOc1nc(NCc2ccc(S(N)(=O)=O)cc2)nc2ccc(-c3ccc(NC(=O)NC4CC4)cc3)nc12` [Example 131, 4-{[4-Ethoxy-6-(4-(3-cyclopropylureido)-phenyl)-pyrido[3,2-d]pyrimidin-2-ylamino]-methyl}-benzenesulfonamide]: the 50% cytotoxic concentration (CC50) at 3 days in data set [1] fell in the range of 5 to 25 µM. The EC50 in data set [2] was less than 0.1 µM.

On to `NS(=O)(=O)c1ccc(CNc2nc(NCC(F)(F)F)c3nc(-c4ccc(N5CCCC5=O)cc4)ccc3n2)cc1` [Example 191, 4-{[6-[4-(2-Oxo-pyrrolidin-1-yl)-phenyl]-4-(2,2,2-trifluoro-ethylamino)-pyrido[3,2-d]pyrimidin-2-ylamino]-methyl}-benzenesulfonamide], for which the CC50 at 3 days in data set [1] was less than 5 µM. In addition, the EC50 in data set [2] was less than 0.1 µM.

For the compound `CCNc1nc(NCc2ccc(S(N)(=O)=O)cc2)nc2ccc(-c3ccc(F)cc3)nc12` [Example 297, 4-{[4-Ethylamino-6-(4-fluoro-phenyl)-pyrido[3,2-d]pyrimidin-2-ylamino]-methyl}-benzenesulfonamide], the CC50 at 3 days in data set [1] was less than 5 µM. In addition, in data set [2], the EC50 was less than 0.1 µM.

For `CCOc1nc(NCCS(N)(=O)=O)nc2ccc(-c3ccc(F)cc3)nc12` [Example 265, 2-[4-Ethoxy-6-(4-fluoro-phenyl)-pyrido[3,2-d]pyrimidin-2-ylamino]-ethanesulfonic acid amide], the CC50 at 3 days in data set [1] was 5 to 25 µM. Further, in data set [2], the EC50 was less than 0.1 µM.

The values above are taken from US8729089B2 (Gilead Sciences, Inc., priority 2006, dated 2014).
